Experimental findings from patent US20250177555A1 (priority 2022, published 2025) are described below.

One test has as its target BlaM-Vpr-GFP1-10. In words: cell-based or functional assay.
The test system of test [1] is CNV-G gectosome cell entry. Type of test: cell-based, human. As to conditions: read-out: IC50, CNV-G gectosome inhibition.
Test [2] concerns VSV-G gectosome uptake, 293ColorSwitch cells. The format is cell-based. As to conditions: Cre cargo.
Test [3] relates to CNV-G gectosome uptake, 293ColorSwitch cells. Type of test: cell-based.
Test [4] concerns CNV-G pseudotyped lentiviral infection. Type of test: cell-based.

By IC50 is commonly meant the concentration at which inhibition is half-maximal.

With CNV-G-EGFP (from UniProt P13180 23-530), the efficiency of cargo transfer against the CNV-G-GFP11 and BlaM-GFP1-10 pair with BlaM-Vpr-GFP1-10 is 100 fold less.
Regarding `COc1ccc2c(c1)CC[C@@H]1[C@@H]2CC[C@]2(C)[C@@H](NCCCCCCN3C(=O)C=CC3=O)CC[C@@H]12` [U-73122], the IC50 in test [1] was found to be 3030 nM.
As to `CCCCCCCCCCCCCCCCOP(=O)([O-])OCC[N+](C)(C)C` [Milterfosine], the “inhibition of VSV-G gectosome uptake” value in test [2] was “NOT VSV-G gectosome uptake”. The “inhibition of CNV-G gectosome uptake” value in test [3] was “specifically inhibit”.
With `C/C1=C/C(=O)O[C@@H]2C[C@@H](CC[C@H](C)/C=C\CC1)O[C@@](O)([C@@H]1CSC(=O)N1)C2` [Latrunculin B], the half-maximal inhibitory concentration (IC50) in test [1] turned out to be 1960 nM. In test [4], the “effect on CNV-G pseudotyped lentiviral infection” value was “effect of Latrunculin B on CNV-G”.
